The text below walks through data of publication PMC10728902, “β-L-Arabinofurano-cyclitol Aziridines Are Covalent Broad-Spectrum Inhibitors and Activity-Based Probes for Retaining β-L-Arabinofuranosidases” (ACS Chemical Biology, 2023).

Read-outs that look alike come from different tables or passages of the source.

One test deals with T1, rBtGH146 (Bacteroides thetaiotaomicron, UniProt Q8AAW3).
T1 construct: gene BT_0349; recombinant, expressed in E. coli; 92 kDa on gel; produced by published procedures
T1 sequence (Q8AAW3 1-802): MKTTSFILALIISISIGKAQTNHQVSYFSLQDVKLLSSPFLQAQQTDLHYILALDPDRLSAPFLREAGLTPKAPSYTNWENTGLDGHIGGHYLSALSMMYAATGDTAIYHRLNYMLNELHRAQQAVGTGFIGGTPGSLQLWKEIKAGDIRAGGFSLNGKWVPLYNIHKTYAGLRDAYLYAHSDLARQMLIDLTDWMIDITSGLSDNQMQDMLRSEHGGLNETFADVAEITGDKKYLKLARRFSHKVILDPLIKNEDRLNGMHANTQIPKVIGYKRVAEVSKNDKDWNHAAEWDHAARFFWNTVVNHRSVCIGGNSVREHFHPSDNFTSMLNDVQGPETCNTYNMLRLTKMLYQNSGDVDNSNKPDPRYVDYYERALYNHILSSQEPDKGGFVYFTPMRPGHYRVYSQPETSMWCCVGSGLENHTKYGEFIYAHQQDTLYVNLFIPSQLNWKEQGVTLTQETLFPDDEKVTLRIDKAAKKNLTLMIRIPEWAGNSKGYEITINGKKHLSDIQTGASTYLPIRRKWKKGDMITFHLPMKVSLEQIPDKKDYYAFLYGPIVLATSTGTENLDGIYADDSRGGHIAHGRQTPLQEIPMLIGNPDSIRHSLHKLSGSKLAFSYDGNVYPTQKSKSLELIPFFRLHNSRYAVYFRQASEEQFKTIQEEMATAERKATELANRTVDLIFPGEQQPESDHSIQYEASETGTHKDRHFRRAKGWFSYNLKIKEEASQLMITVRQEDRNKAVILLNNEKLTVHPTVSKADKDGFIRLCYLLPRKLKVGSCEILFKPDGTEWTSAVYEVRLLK
Briefly: inactivation kinetics, residual hydrolysis of 4-nitrophenyl beta-L-arabinofuranoside, A405. The class given is biochemical. From the text:
inactivation kinetics, residual hydrolysis of 4-nitrophenyl beta-L-arabinofuranoside, A405 on rBtGH146

Another test concerns the target T2, rHypBA1 (Bifidobacterium longum, UniProt E8MGH8).
T2 construct: gene hypBA1; recombinant; 74 kDa; produced by published procedures
T2 sequence (E8MGH8 1-658): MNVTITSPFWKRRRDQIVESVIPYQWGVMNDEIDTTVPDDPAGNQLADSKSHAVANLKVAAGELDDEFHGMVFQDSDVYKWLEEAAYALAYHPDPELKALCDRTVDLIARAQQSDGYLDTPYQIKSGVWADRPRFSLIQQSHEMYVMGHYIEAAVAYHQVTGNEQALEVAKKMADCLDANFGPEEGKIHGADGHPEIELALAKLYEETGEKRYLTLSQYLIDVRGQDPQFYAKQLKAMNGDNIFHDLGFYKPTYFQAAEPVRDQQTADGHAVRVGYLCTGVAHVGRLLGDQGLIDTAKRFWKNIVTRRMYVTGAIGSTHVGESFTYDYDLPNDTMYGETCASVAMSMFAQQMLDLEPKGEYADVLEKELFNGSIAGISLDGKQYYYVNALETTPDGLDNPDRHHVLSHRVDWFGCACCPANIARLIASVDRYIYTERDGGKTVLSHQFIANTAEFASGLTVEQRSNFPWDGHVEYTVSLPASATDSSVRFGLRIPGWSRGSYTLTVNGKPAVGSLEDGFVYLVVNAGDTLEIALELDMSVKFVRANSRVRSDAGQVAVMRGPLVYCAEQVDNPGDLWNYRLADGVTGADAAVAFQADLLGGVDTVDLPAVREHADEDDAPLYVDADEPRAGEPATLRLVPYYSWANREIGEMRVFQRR
The test is described as above. The class given is biochemical. From the text:
inactivation kinetics, residual hydrolysis of 4-nitrophenyl beta-L-arabinofuranoside, A405 on rHypBA1

The mark [1] stands for this setting: read-out: rBtGH146 / KI, covalent, time-dependent, pH 7.5 HEPES, 200 mM NaCl, 1 mM DTT, 37 °C.

One may read the kinact/KI as the maximal inactivation rate divided by the concentration that gives half of it.

For `CN1C(=CC=CC=CC2=[N+](CCCCCC(=O)NCCCCCCCCOC[C@H]3[C@H](O)[C@@H](O)[C@H]4O[C@@H]34)c3ccccc3C2(C)C)C(C)(C)c2ccccc21` [compound 4, Cy5-tagged epoxide ABP 4], the KI (inactivation) at rBtGH146 (setting [1]) was 140 ± 10 µM. For the same compound, on rHypBA1, the kinact/KI is under 0.1 M⁻¹ s⁻¹.

As for `OC[C@H]1[C@H](O)[C@@H](O)[C@H]2N[C@@H]12` [compound 2, β-L-arabinofuranosyl cyclophellitol aziridine], the KI (inactivation) on rBtGH146 (covalent, time-dependent, pH 7.5 HEPES, 200 mM NaCl, 1 mM DTT, 37 °C, read-out: rBtGH146 / KI) was 350 ± 40 µM. In addition, the kinact/KI on rHypBA1 was over 4200 M⁻¹ s⁻¹.

As to `NCCCCCCCCN1[C@@H]2[C@H](O)[C@@H](O)[C@H](CO)[C@@H]21` (stereo partly drawn) [compound 7, aziridine 7], the KI (inactivation) at rBtGH146 (setting [1]) is 190 ± 20 µM; on rHypBA1 (read-out: rHypBA1 / KI, covalent, time-dependent, pH 4.5 acetate, 1 mM DTT, 37 °C) it was 280 ± 90 µM.
